For experiment [1], the system named is GES-1 human gastric mucosal epithelial cells. Nature of the experiment: cells. Conditions: GES1, 24 h, read-out: Cell viability (%). In kind it is cell-based. As for the experimental part: Long-term alcoholics were prone to gastric mucosal damage due to long-term alcohol damage.
A blank control group (without ethanol) and a model group (with ethanol but without the salt or glycyrrhetinic acid in the examples) were set.
The cells were cultured in a complete RPMI 1640 medium for 6 h.
Then, the cell viability was detected. […] Table 2 Cell viability of ethanol-induced damage models of gastric mucosal epithelial cells

Experiment [2] relates to SH-SY5Y human neuroblastoma cells. Nature of the experiment: Parkinson's disease cell model (6-OHDA), cell viability. Conditions: 24 h, read-out: Cell viability (%).
Experimental: A blank control group (without 6-OHDA) and a model group (with 6-OHDA but without the salt of this example or selegiline) were set.
SH-SY5Y human neuroblastoma cells were uniformly inoculated into a 96-well plate, about 5,000 cells per well. The cells were cultured in a complete DMEM/F12 medium for 6 h. After the cells were completely adhered to the wall, all the media were removed, 100 µL of serum-free DMEM/F12 medium, i.e., a cell culture solution, containing 150 µmol/L of 6-OHDA (a serum-free DMEM/F12 medium without 6-OHDA was added to the blank group), was added to each well, and the cells were incubated and cultured for 24 h.
Then, all the media were removed again, 100 µL of each of serum-free DMEM/ F12 media, i.e., cell culture solutions, containing 0.025 g/mL, 0.05 g/mL, 0.1 g/mL, 0.2 g/mL, 0.4 g/mL and 0.8 g/mL of compound of experimental or control groups (a serum-free DMEM/ F12 medium without compound of experimental or control groups was added to the blank group and a model group) were added to each well according to the groups, and the cells were cultured in a cell culture solution for 24 h.

In general, viability refers to a read-out of living cells in per cent, often relative to untreated cells.

On to `CC1(C)[C@@H](O)CC[C@]2(C)[C@H]3C(=O)C=C4[C@@H]5C[C@@](C)(C(=O)O)CC[C@]5(C)CC[C@@]4(C)[C@]3(C)CC[C@@H]12` [Glycyrrhetinic acid, glycyrrhetinic acid], for which, in experiment [1], the viability at 25 µg/mL is 59.4%, the viability at 50 µg/mL is 61.8%, the viability at 100 µg/mL turned out to be 64.3% and the viability at 200 µg/mL stood at 65.2%. In experiment [1], the viability at 400 µg/mL stood at 68.9% and the viability at 800 µg/mL worked out at 71.9%.
Turning to `C#CCN(C)[C@H](C)Cc1ccccc1` [Selegiline, selegiline], in experiment [2], the viability at 25 µg/mL was 33.4%, the viability at 50 µg/mL worked out at 37.5%, the viability at 100 µg/mL was found to be 43.3% and the viability at 200 µg/mL turned out to be 49.9%. Besides, in experiment [2], the viability at 400 µg/mL is 58.5% and the viability at 800 µg/mL was found to be 69.8%.

The values are drawn from patent publication EP4624454A1, “NON-COVALENT DIMER CATION, AND SALT THEREOF, PREPARATION METHOD THEREFOR AND USE THEREOF” (Suzhou Protonation Chain Biotechnology Co., Ltd, priority 2022, dated 2024).
